# What was measured:
# [1] = tested on: Jurkat; experiment: Cytotoxicity against human Jurkat cells after 72 hrs by MTS method; format: functional
# [2] = tested on: PC-3; experiment: Cytotoxicity against human PC-3 cells after 72 hrs by MTS method; format: functional; conditions: PC-3, 72 h
SMILES,GI50 [1],GI50 [2]
CCCCCCCCCCCC[C@@H](O)[C@H]1CC[C@H]([C@H](O)CCCCC[C@@H](O)CCCCCCC2=C[C@H](C)OC2=O)O1,5 µg/mL,10 µg/mL
CCCCCCCCCCCC[C@@H](O)[C@H]1CC[C@H]([C@H](O)CCCCC[C@H](O)CCCCCCC2=C[C@H](C)OC2=O)O1,5 µg/mL,15 µg/mL
